In patent US20230190781A1, “ADEMETIONINE AND CANNABIDIOL BASED SOLID PHARMACEUTICAL COMPOSITION AND METHOD FOR PREPARING IT” (priority 2020, published 2023):

Tests used:
[1] = Stability of ademetionine in the compositions; format: physicochemical; conditions: +40° C. and 75% RH
Experimental: The compositions prepared according to the previous examples were placed in dark glass jars in cabinets with temperature and relative humidity control (+40° C. and 75% RH), periodically checking the content of active substances. The stability of the raw material is used as a reference.

[2] = Residual humidity according to Karl-Fisher during processing under vacuum; format: physicochemical; conditions: Phase: dosage
Experimental: It was operated as described in Example 3, but the step of mixing the active substances was carried out under vacuum, as described in Example 11.

ademetionine content, Time (months) 0 ([1]; dark glass jars, 0 months): 51.5
ademetionine content, Time (months) 1 ([1]; dark glass jars, 1 month): 51.0
ademetionine content, Time (months) 2 ([1]; dark glass jars, 2 months): 49.6
ademetionine content, Time (months) 3 ([1]; dark glass jars, 3 months): 48.8
% residual ion ([1]; active substance content after three months as a percentage with respect to time zero): 94.8%
KF: residual humidity [2]: 2.7% w/w
Compound: C[S+](CC[C@H](N)C(=O)[O-])C[C@H]1O[C@@H](n2cnc3c(N)ncnc32)[C@H](O)[C@@H]1O (stereo partly drawn) [Ademetionine, S,S-adenosyl-L-methionine]
